This note sets out measurements from patent US10758607B2, “Respiratory syncytial virus having cleavage-resistant G protein and related materials and methods” (The Research Institute at Nationwide Children's Hospital, priority 2015, dated 2020).

For test [1], the system named is RSV G protein cleavage in Vero cells. Put plainly: Cleavage of mutant G proteins transiently expressed in Vero cells (immunoblot). Type of test: cell-based. Here is the method:
The G gene in the region of amino acid 210 was modified by deleting stretches of amino acids in this region (200-211, 204-213, 206-215, 208-217, or 209-213). […] Most of the mutants almost completely ablate cleavage. They all share amino acids 208-211. However, A206-210 and A206-215, both of which bring together amino acids that can also serve as a cathepsin L cleavage site. For FIG. 6B, the mutated G protein genes were transiently expressed in Vero cells. 24 h post-transfection cells were harvested, lysed and proteins were separated by SDS-PAGE, blotted and probed with mAb to the G protein.
To identify which amino acids are important for cleavage, individual amino acids in and around this region were changed to alanine. These mutant G proteins were transiently expressed in Vero cells and assessed by immunoblot (FIG. 6C). For FIG. 6C, the mutated G protein genes were transiently expressed in Vero cells. 24 hours post-transfection cells were harvested, lysed and proteins were separated by SDS-PAGE, blotted and probed with mAb to the G protein.
The strain A2 G protein plasmid was mutagenized using synthetic double strand gBlock DNA (Integrated DNA Technologies). Van91I (Thermo Fisher) and Xho I (New England Biolabs) were used to digest plasmid and gBlock. Doubly-digested plasmid was isolated by agarose gel electrophoresis. Digested gBlock and eluted plasmid DNAs were ligated with T4 DNA ligase (Promega, Madison, Wis.), and transformed into One Shot MachI-T1 chemically competent bacteria (Life Technologies). Plasmids were extracted using HiSpeed or Plasmid Plus Maxi kits (Qiagen).
Wild type G or frG proteins were expressed in HeLa or Vero cells following plasmid transfection with FuGene HD (Promega) or Lipofectamine LTX (Life Technologies), respectively, in medium containing 2% FBS. In frG experiments, medium was collected and concentrated using Ultracel-10 K centrifugal filters (EMD Millipore, Billerica, Mass.). For other transfection experiments, Vero cells were transfected using Lipofectamine 3000 (Life Technologies) in medium containing 10% FBS. For all transfection experiments, cells were lysed and protein quantified by BCA assay. Equivalent HeLa or Vero cell lysate protein and equivalent volumes of concentrated proteins from the medium were analyzed by immunoblotting.

Test [2] relates to G protein cleavage in RSV virions. Briefly: Virion G protein of rgRSV-L208A grown in Vero cells (immunoblot). To be noted: purified through sucrose. Format: cell-based. Here is the method:
To test the infectivity of Vero-derived virus with an uncleavable G in HAE cultures, the L208A mutation was incorporated into the whole virus. rgRSV and rgRSV-L208A were grown in HeLa or Vero cells, purified by sucrose gradient, and their virion G proteins assessed by immunoblot (FIG. 7A). For FIG. 7A, the L208A mutant G protein gene was inserted into the full-length RSV genome cDNA, in place of the wt G protein. The mutant RSV was rescued and grown in HeLa or Vero cells, purified by centrifugation through a 35% sucrose cushion, and G protein assessed as before. […] The viruses were titrated on HeLa cells and equivalent infectious units used to inoculate HeLa or HAE cultures. […] For FIG. 7B, virus was titrated on HeLa cells and equivalent infectious units were used to inoculate HAE and HeLa in parallel. Virus-infected (green) cells were counted at 24 (HeLa) or 48 (HAE) hpi.
The full-length RSV cDNA construct, RW30 (Kwilas et al., J Virol (2010) 84:7770-7781), was used as the backbone for a modification of the G protein gene at amino acid 208 from a […] to an alanine. RW30 was digested with restriction enzymes EcoICRI and SacII (Thermo Fisher Scientific Waltham, Mass.) to remove the G gene, and the remaining vector was isolated from an 0.5% agarose gel following electrophoresis and eluted from the gel fragment with the Qiaex II gel elution kit (Qiagen, Valencia, Calif.). […]

On to “L208: RSV strain A2 G protein with alanine substitution for L208”, for which the “efficiency at inhibiting cleavage (rank among alanine substitutions)” value in test [1] is reported as “most efficient”. The “resistance to cleavage of alanine substitution G protein mutants” value in test [1] (24 hours post-transfection) is “partially to nearly completely resistant to cleavage”. For the same substance, in test [2], the “virion G protein cleavage” value is given as “prevention of G protein cleavage”.
